Data reported in PMC5601486, “Identification of 4-phenylquinolin-2(1H)-one as a specific allosteric inhibitor of Akt” (Scientific Reports, 2017).
Read-outs that look alike come from different tables or passages of the source.

Legend:
[1] = tested on: PAK1; experiment: KINOMEscan; details: 50000 nM
Method: KINOMEscan™ selectivity screen
(§2) The assay was perfor med at DiscoveRx Corporation according the methods published previously5. Briefly, Kinase-tagged T7 phage strains were grown in parallel in an E. coli host derived from the BL21 strain. E. coli were grown to log-phase and infected with T7 phage from a frozen stock and incubated with shaking at 32°C until lysis (90-150 minutes). The kinases were produced in HEK-293 cells and subsequently tagged with DNA for qPCR detection. Streptavidin-coated magnetic beads were treated with biotinylated small molecule ligands to generate affinity resins for kinase
(§3) inhibitor or DMSO control was performed in polypropylene 384-well plates for 1 hr at room temperature. After wash with PBS buffer containing 0.05% Tween 20, the beads were incubated in elution buffer (PBS containing 0.05 % Tween 20 and 0.5 μM non-biotinylated affinity ligand) for 30 minutes at room temperature. The kinase concentration in the eluates was measured by qPCR.

[2] = tested on: MYLK4; experiment: KINOMEscan; details: 50000 nM
Method: KINOMEscan™ selectivity screen
as §2, §3

[3] = tested on: CAMK1D; experiment: KINOMEscan; details: 50000 nM
Method: (§4) Briefly, Kinase-tagged T7 phage strains were grown in parallel in an E. coli host derived from the BL21 strain. E. coli were grown to log-phase and infected with T7 phage from a frozen stock and incubated with shaking at 32°C until lysis (90-150 minutes). The kinases were produced in HEK-293 cells and subsequently tagged with DNA for qPCR detection. Streptavidin-coated magnetic beads were treated with biotinylated small molecule ligands to generate affinity resins for kinase
as §3

[4] = tested on: SGK3; experiment: KINOMEscan; details: 50000 nM
Method: KINOMEscan™ selectivity screen
as §2, §3

[5] = tested on: TYK2(JH1domain-catalytic); experiment: KINOMEscan; details: 50000 nM
Method: KINOMEscan™ selectivity screen
as §2, §3

[6] = tested on: PDGFRA; experiment: KINOMEscan; details: 50000 nM
Method: KINOMEscan™ selectivity screen
as §2, §3

[7] = tested on: TYK2(JH2domain-pseudokinase); experiment: KINOMEscan; details: 50000 nM
Method: KINOMEscan™ selectivity screen
as §2, §3

[8] = tested on: MAP4K4; experiment: KINOMEscan; details: 50000 nM
Method: KINOMEscan™ selectivity screen
as §2, §3

[9] = tested on: LYN; experiment: KINOMEscan; details: 50000 nM
Method: KINOMEscan™ selectivity screen
as §2, §3

[10] = tested on: ABL1(F317I)-phosphorylated; experiment: KINOMEscan; details: 50000 nM
Method: KINOMEscan™ selectivity screen
as §2, §3

[11] = tested on: NIM1; experiment: KINOMEscan; details: 50000 nM
Method: KINOMEscan™ selectivity screen
as §4, §3

[12] = tested on: ULK3; experiment: KINOMEscan; details: 50000 nM
Method: KINOMEscan™ selectivity screen
as §2, §3

[13] = tested on: FLT3(ITD,D835V); experiment: KINOMEscan; details: 50000 nM
Method: KINOMEscan™ selectivity screen
as §2, §3

[14] = tested on: DCAMKL3; experiment: KINOMEscan; details: 50000 nM
Method: KINOMEscan™ selectivity screen
as §4, §3

[15] = tested on: ABL1(T315I)-nonphosphorylated; experiment: KINOMEscan; details: 50000 nM
Method: KINOMEscan™ selectivity screen
as §4, §3

[16] = tested on: MET(M1250T); experiment: KINOMEscan; details: 50000 nM
Method: KINOMEscan™ selectivity screen
The assay was perfor med at DiscoveRx Corporation according the methods published previously5. […] The kinases were produced in HEK-293 cells and subsequently tagged with DNA for qPCR detection. Streptavidin-coated magnetic beads were treated with biotinylated small molecule ligands to generate affinity resins for kinase
as §3

[17] = tested on: RSK3(Kin.Dom.1-N-terminal); experiment: KINOMEscan; details: 50000 nM
Method: KINOMEscan™ selectivity screen
as §4, §3

[18] = tested on: PAK7; experiment: KINOMEscan; details: 50000 nM
Method: KINOMEscan™ selectivity screen
as §2, §3

[19] = tested on: LTK; experiment: KINOMEscan; details: 50000 nM
Method: KINOMEscan™ selectivity screen
as §2, §3

[20] = tested on: CDKL2; experiment: KINOMEscan; details: 50000 nM
Method: KINOMEscan™ selectivity screen
as §4, §3

[21] = tested on: ABL1(T315I)-phosphorylated; experiment: KINOMEscan; details: 50000 nM
Method: KINOMEscan™ selectivity screen
as §2, §3

[22] = tested on: CAMK2D; experiment: KINOMEscan; details: 50000 nM
Method: KINOMEscan™ selectivity screen
as §4, §3

[23] = tested on: EGFR(E746-A750del); experiment: KINOMEscan; details: 50000 nM
Method: KINOMEscan™ selectivity screen
as §4, §3

[24] = tested on: VEGFR2; experiment: KINOMEscan; details: 50000 nM
Method: KINOMEscan™ selectivity screen
as §2, §3

[25] = tested on: p38-delta; experiment: KINOMEscan; details: 50000 nM
Method: KINOMEscan™ selectivity screen
as §4, §3

[26] = tested on: TAOK3; experiment: KINOMEscan; details: 50000 nM
Method: KINOMEscan™ selectivity screen
as §2, §3

[27] = tested on: AAK1; experiment: KINOMEscan; details: 50000 nM
Method: KINOMEscan™ selectivity screen
as §2, §3

[28] = tested on: CLK2; experiment: KINOMEscan; details: 50000 nM
Method: KINOMEscan™ selectivity screen
as §2, §3

[29] = target: T1, Akt PH domain (Homo sapiens, UniProt P31749); experiment: Microscale thermophoresis; assay type: binding; details: recombinant Akt PH domain
T1 construct: The Akt samples tested include recombinant Akt PH domain; purchased Millipore
Method: (§1) Using 0.1 M Tris-HCl buffer (pH 7.2) containing 0.05% Tween-20, a 1:1 serial dilution was prepared for G7 to yield 16 working solutions, with the highest concentration being 200 µM. Each of these G7 solutions was mixed with 1 µM of purified Akt sample prepared in the same 0.05% Tween-20 Tris-HCl buffer. […] After 15-min incubation the samples were centrifuged at 14,000 g at 4 °C before loading into premium coated capillaries (NanoTemper Tech.) for MST measurements. The MST experiments was conducted on a Monolith NT.LabelFree instrument (NanoTemper Tech.), at 20% LED power and 40% MST power. Data analyses were performed using the NanoTemper analysis software.

[30] = target: T2, full-length Akt (Homo sapiens, UniProt P31749); experiment: Microscale thermophoresis; assay type: binding
T2 construct: purchased Millipore
Method: as §1

[31] = tested on: ABL1-nonphosphorylated; experiment: KINOMEscan; details: 50000 nM
Method: KINOMEscan™ selectivity screen
as §2, §3

[32] = tested on: VRK2; experiment: KINOMEscan; details: 50000 nM
Method: KINOMEscan™ selectivity screen
as §2, §3

[33] = tested on: Neuro 2A cells; experiment: MTS cell proliferation assay; assay type: cell-based, Mouse; details: 1 day
Method: Neuro 2A cells or NIH/3T3 cells (ATCC) were seeded at various confluency in a 96-well plate in 100 µL DMEM containing 5% FBS or 10% FBS with 1% penicillin streptomucin, respectively, at 37 °C in a 5% CO2 and 95% humidity incubator for 18 hr. To each well 1 µL inhibitor with various concentrations or DMSO was added. The final concentrations of the tested inhibitors were 0, 5, 10, 20, 40 and 80 µM for G7 and LY, and 0, 5, 10, 20, 40 and 80 nM for Torin1, based on their respective IC50 values (~µM for G7 and LY and ~ nM for Torin 1). After 24 hr, 20 µL of CellTiter 96® AQueous One Solution Reagent (Promega) were added. The plate was placed in the incubator for 2 h and absorbance at 490 nm was measured with a Synergy HT Microplate Reader (Bio-Tek).

[34] = tested on: MAP3K15; experiment: KINOMEscan; details: 50000 nM
Method: KINOMEscan™ selectivity screen
as §4, §3

[35] = tested on: CIT; experiment: KINOMEscan; details: 50000 nM
Method: KINOMEscan™ selectivity screen
The kinases were produced in HEK-293 cells and subsequently tagged with DNA for qPCR detection. Streptavidin-coated magnetic beads were treated with biotinylated small molecule ligands to generate affinity resins for kinase
as §3

[36] = tested on: RIOK3; experiment: KINOMEscan; details: 50000 nM
Method: KINOMEscan™ selectivity screen
as §2, §3

[37] = tested on: TNK1; experiment: KINOMEscan; details: 50000 nM
Method: KINOMEscan™ selectivity screen
as §2, §3

[38] = tested on: T3, PKNB(M.tuberculosis); experiment: KINOMEscan; assay type: binding; details: 50000 nM
T3 construct: purchased DiscoveRx KINOMEscan

[39] = tested on: BMX; experiment: KINOMEscan; details: 50000 nM
Method: KINOMEscan™ selectivity screen
as §4, §3

[40] = tested on: CDK11; experiment: KINOMEscan; details: 50000 nM
Method: KINOMEscan™ selectivity screen
as §2, §3

T2 sequence (P31749 whole entry): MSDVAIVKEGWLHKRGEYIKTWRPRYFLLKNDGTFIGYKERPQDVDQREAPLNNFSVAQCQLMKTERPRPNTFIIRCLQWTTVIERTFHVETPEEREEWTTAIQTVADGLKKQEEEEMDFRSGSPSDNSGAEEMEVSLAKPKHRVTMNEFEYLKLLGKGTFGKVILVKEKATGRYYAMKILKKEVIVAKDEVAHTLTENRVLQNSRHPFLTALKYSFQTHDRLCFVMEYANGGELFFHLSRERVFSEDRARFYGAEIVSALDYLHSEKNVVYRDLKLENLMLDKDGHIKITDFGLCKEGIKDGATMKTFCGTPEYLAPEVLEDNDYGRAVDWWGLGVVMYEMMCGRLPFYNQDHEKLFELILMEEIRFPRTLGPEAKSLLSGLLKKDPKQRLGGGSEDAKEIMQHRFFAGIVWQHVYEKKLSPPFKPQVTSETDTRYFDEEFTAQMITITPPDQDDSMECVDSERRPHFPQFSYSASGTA
T1 sequence (P31749 5-108 limits assumed): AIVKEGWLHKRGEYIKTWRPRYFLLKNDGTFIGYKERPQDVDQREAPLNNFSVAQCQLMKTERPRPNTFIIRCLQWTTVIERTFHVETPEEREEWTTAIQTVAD

Oc1cc(-c2ccccc2)c2ccccc2n1 [G7, 4-phenylquinolin-2(1H)-one]
Percent Control [1]: 82%
Percent Control [2]: 43%
Percent Control [3]: 87%
Percent Control [4]: 83%
Percent Control [5]: 72%
Percent Control [6]: 52%
Percent Control [7]: 15%
Percent Control [8]: 100%
Percent Control [9]: 88%
Percent Control [10]: 72%
Percent Control [11]: 90%
Percent Control [12]: 86%
Percent Control [13]: 34%
Percent Control [14]: 91%
Percent Control [15]: 86%
Percent Control [16]: 96%
Percent Control [17]: 69%
Percent Control [18]: 57%
Percent Control [19]: 95%
Percent Control [20]: 69%
Percent Control [21]: 64%
Percent Control [22]: 79%
Percent Control [23]: 70%
Percent Control [24]: 67%
Percent Control [25]: 100%
Percent Control [26]: 100%
Percent Control [27]: 62%
Percent Control [28]: 64%
Kd [29]: 8 µM
Kd ([30]; active Akt, read-out: Kd): 6.3 ± 2.9 µM
Kd ([30]; full-length Akt regardless of the activation status, read-out: Kd values): 4 to 6 µM
Kd ([30]; inactive Akt, read-out: Kd): 3.7 ± 1 µM
Percent Control [31]: 81%
Percent Control [32]: 82%
proliferation of Neuro 2A cells [33]: inhibited the proliferation
Percent Control [34]: 71%
Percent Control [35]: 74%
Percent Control [36]: 58%
Percent Control [37]: 100%
Percent Control [38]: 43%
Percent Control [39]: 86%
Percent Control [40]: 91%
